Data reported in PubChem BioAssay AID2060627 (Molecular Pharmacology Branch, DTP, NCI, 2025).
Where “and” joins values, the source holds several entries; their conditions need not be identical. Identical values can stand only once.

System: 156681-154-R-J1-PDC complex spheroid viability
Assay: Anticancer human tumor 156681-154-R-J1-PDC patient-derived melanoma cell line growth inhibition [CLK]
Details: for viability, T/C: stronger effect = lower value
Procedure, shortened: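 Multi-cell-type spheroids combined patient-derived tumor cells with HUVEC endothelial cells and human mesenchymal stem cells. Paired agents were dosed in half-log steps down from about clinical Cmax, or from 10 microM where Cmax was unknown.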

[1] = curve of first compound, second compound 0.0316 µM
[2] = curve of first compound, second compound 0.1 µM
[3] = curve of first compound, second compound 0.316 µM
[4] = curve of first compound, second compound 1 µM
[5] = curve of first compound, second compound 3.16 µM
[6] = curve of first compound, second compound 10 µM
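Note: spheroids exposed to the agents for seven days.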
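Throughout, for viability, T/C: 100% = DMSO vehicle control viability.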

CC(C)CC(NC(=O)C(Cc1ccccc1)NC(=O)c1cnccn1)B(O)O (stereo unspecified)
viability, T/C (compound 0.000949 µM): 26.8% and 12.1%
viability, T/C (compound 0.003 µM): 0.63% and 0.17%
viability, T/C (compound 0.00949 µM): 0.23% and 0.71%
viability, T/C (compound 0.03 µM): 0.23% and 2.41%
viability, T/C (compound 0.0949 µM): 0.31% and 0.16%
viability, T/C (compound 0.3 µM): 2.09% and 0.42%
IC50 (curve of compound): < 0.949 nM

CC1(C)CCC(CN2CCN(c3ccc(C(=O)NS(=O)(=O)c4ccc(NCC5CCOCC5)c([N+](=O)[O-])c4)c(Oc4cnc5[nH]ccc5c4)c3)CC2)=C(c2ccc(Cl)cc2)C1 + CN1CCN(c2cc(C(=O)Nc3cc4cc(-c5cnn(C)c5)ccc4cn3)ccn2)CC1
IC50 [1]: 4990 nM
IC50 [2]: 4370 nM
IC50 [3]: < 31.6 nM
IC50 [4]: < 31.6 nM
IC50 [5]: < 31.6 nM
IC50 [6]: < 31.6 nM
viability, T/C (second compound 0.0316 µM, first compound 0.0316 µM): 99.7%
viability, T/C (second compound 0.0316 µM, first compound 0.1 µM): 116%
viability, T/C (second compound 0.0316 µM, first compound 0.316 µM): 90.8%
viability, T/C (second compound 0.0316 µM, first compound 1 µM): 103%
viability, T/C (second compound 0.0316 µM, first compound 3.16 µM): 81.6%
viability, T/C (second compound 0.0316 µM, first compound 10 µM): 1.68%
viability, T/C (second compound 0.1 µM, first compound 0.0316 µM): 97.8%
viability, T/C (second compound 0.1 µM, first compound 0.1 µM): 83.3%
viability, T/C (second compound 0.1 µM, first compound 0.316 µM): 86%
viability, T/C (second compound 0.1 µM, first compound 1 µM): 88.8%
viability, T/C (second compound 0.1 µM, first compound 3.16 µM): 69.2%
viability, T/C (second compound 0.1 µM, first compound 10 µM): 0.79%
viability, T/C (second compound 0.316 µM, first compound 0.0316 µM): 18.2%
viability, T/C (second compound 0.316 µM, first compound 0.1 µM): 19.7%
viability, T/C (second compound 0.316 µM, first compound 0.316 µM): 24.4%
viability, T/C (second compound 0.316 µM, first compound 1 µM): 17.9%
viability, T/C (second compound 0.316 µM, first compound 3.16 µM): 8.72%
viability, T/C (second compound 0.316 µM, first compound 10 µM): 0.28%
viability, T/C (second compound 1 µM, first compound 0.0316 µM): 0.22%
viability, T/C (second compound 1 µM, first compound 0.1 µM): 0.91%
viability, T/C (second compound 1 µM, first compound 0.316 µM): 0.19%
viability, T/C (second compound 1 µM, first compound 1 µM): 0.18%
viability, T/C (second compound 1 µM, first compound 3.16 µM): 2.05%
viability, T/C (second compound 1 µM, first compound 10 µM): 0.07%
viability, T/C (second compound 3.16 µM, first compound 0.0316 µM): 2.04%
viability, T/C (second compound 3.16 µM, first compound 0.1 µM): 0.47%
viability, T/C (second compound 3.16 µM, first compound 0.316 µM): 0.27%
viability, T/C (second compound 3.16 µM, first compound 1 µM): 0.09%
viability, T/C (second compound 3.16 µM, first compound 3.16 µM): 3.38%
viability, T/C (second compound 3.16 µM, first compound 10 µM): 0.4%
viability, T/C (second compound 10 µM, first compound 0.0316 µM): 0.1%
viability, T/C (second compound 10 µM, first compound 0.1 µM): 3.06%
viability, T/C (second compound 10 µM, first compound 0.316 µM): 2.9%
viability, T/C (second compound 10 µM, first compound 1 µM): 0.17%
viability, T/C (second compound 10 µM, first compound 3.16 µM): 0.91%
viability, T/C (second compound 10 µM, first compound 10 µM): 0.56%

CC(C)CC(NC(=O)C(Cc1ccccc1)NC(=O)c1cnccn1)B(O)O (stereo unspecified) + CNC(=O)c1ccc(Nc2nc(OC3CCCC3)c3c(-c4ccc5nc(C)oc5c4)c[nH]c3n2)c(OC)c1
IC50 [1]: < 0.949 nM
IC50 [2]: < 0.949 nM
IC50 [3]: < 0.949 nM
IC50 [4]: < 0.949 nM
IC50 [5]: < 0.949 nM
IC50 [6]: < 0.949 nM
viability, T/C (second compound 0.0316 µM, first compound 0.000949 µM): 9.11%
viability, T/C (second compound 0.0316 µM, first compound 0.003 µM): 2.74%
viability, T/C (second compound 0.0316 µM, first compound 0.00949 µM): 0.21%
viability, T/C (second compound 0.0316 µM, first compound 0.03 µM): 0.23%
viability, T/C (second compound 0.0316 µM, first compound 0.0949 µM): 0.18%
viability, T/C (second compound 0.0316 µM, first compound 0.3 µM): 1.15%
viability, T/C (second compound 0.1 µM, first compound 0.000949 µM): 15.1%
viability, T/C (second compound 0.1 µM, first compound 0.003 µM): 0.3%
viability, T/C (second compound 0.1 µM, first compound 0.00949 µM): 0.24%
viability, T/C (second compound 0.1 µM, first compound 0.03 µM): 0.21%
viability, T/C (second compound 0.1 µM, first compound 0.0949 µM): 0.18%
viability, T/C (second compound 0.1 µM, first compound 0.3 µM): 1.03%
viability, T/C (second compound 0.316 µM, first compound 0.000949 µM): 16.6%
viability, T/C (second compound 0.316 µM, first compound 0.003 µM): 0.88%
viability, T/C (second compound 0.316 µM, first compound 0.00949 µM): 0.24%
viability, T/C (second compound 0.316 µM, first compound 0.03 µM): 0.19%
viability, T/C (second compound 0.316 µM, first compound 0.0949 µM): 0.15%
viability, T/C (second compound 0.316 µM, first compound 0.3 µM): 0.15%
viability, T/C (second compound 1 µM, first compound 0.000949 µM): 15.8%
viability, T/C (second compound 1 µM, first compound 0.003 µM): 0.29%
viability, T/C (second compound 1 µM, first compound 0.00949 µM): 1.19%
viability, T/C (second compound 1 µM, first compound 0.03 µM): 0.21%
viability, T/C (second compound 1 µM, first compound 0.0949 µM): 0.19%
viability, T/C (second compound 1 µM, first compound 0.3 µM): 1.63%
viability, T/C (second compound 3.16 µM, first compound 0.000949 µM): 14.2%
viability, T/C (second compound 3.16 µM, first compound 0.003 µM): 1%
viability, T/C (second compound 3.16 µM, first compound 0.00949 µM): 1.37%
viability, T/C (second compound 3.16 µM, first compound 0.03 µM): 0.21%
viability, T/C (second compound 3.16 µM, first compound 0.0949 µM): 0.2%
viability, T/C (second compound 3.16 µM, first compound 0.3 µM): 0.39%
viability, T/C (second compound 10 µM, first compound 0.000949 µM): 14.7%
viability, T/C (second compound 10 µM, first compound 0.003 µM): 1.3%
viability, T/C (second compound 10 µM, first compound 0.00949 µM): 0.27%
viability, T/C (second compound 10 µM, first compound 0.03 µM): 0.31%
viability, T/C (second compound 10 µM, first compound 0.0949 µM): 0.26%
viability, T/C (second compound 10 µM, first compound 0.3 µM): 0.15%
